# According to publication PMC8922281, “Synthesis and In Vitro Biological Evaluation of Quinolinyl Pyrimidines Targeting Type II NADH-Dehydrogenase (NDH-2)” (ACS Infectious Diseases, 2022):
# pIC50: −log10 of the molar value. Where “and” joins values, the source holds several entries; their conditions need not be identical. Equal values may be shown once. Read-outs that look alike come from different tables or passages of the source.
# Assays:
# [1] = tested on: Trypanosoma cruzi Tulahuen LacZ (clone C4); experiment: Trypanosoma cruzi growth on MRC-5 cells (CPRG); details: MRC5, 168 h, read-out: IC50 Trypanosoma cruzi
# Experimental: In vitro biology: Minimum inhibitory concentration (MIC) assays on parasites Synthesized compounds were tested against different parasite cell lines (T. brucei, T. cruzi, and P. falciparum K1) for the MIC determination.
# Trypanosoma cruzi cells were maintained on MRC-5 human lung fibroblast cells. The assay was performed with 5% CO2 at 37 °C in a 96-well microtiter plate. Each well contains 10 µl compound dilution and 190 µl parasite/MRC-5 cell inoculum (10:1 parasites : cells). Parasite burdens were evaluated with addition of substrate CPRG (50 µl/well stock solution with 15.2mg CPRG + 250 µl Nonidet in 100 ml PBS). After 4h incubation, the absorbance change was measured spectrophotometrically at 540 nm at 37 °C. The res ults were presented as % growth, compared with non-infected cells (0% growth) and untreated-infected controls (100 % growth) after 7-day incubation, and the
# [2] = tested on: P. falciparum K1; experiment: Plasmodium falciparum K1 growth (Malstat); assay type: cell-based; details: reference compound, 72 h
# Experimental: acceptor at a range of concentrations.
# 2.1.3. IC50 determination
# Compounds were pre-incubated
# IC50 is calculated. […] The […]
# of PES (phenazine ethosulfate, 0.1 mg/ml) and NBT (Nitro Blue Tetrazolium Grade III, 2 mg/ml) in a new plate. The absorbance change was measured at 655nm. The results were shown as % reduction in parasitemia, compared to control wells with no treatment.
# 3. Trypanosoma brucei sample has 7*104 parasites/ml in the suspension. Cultured for 3 days, the growth of the cells was assessed fluorimetrically with the addition of resazurin in a microtiter plate. The fluorescence intensity was measured after 24h at 37 °C with the excitation wavelength at 550nm and the emission wavelength at 590nm. The results were presented as % reduction in parasite growth, compared to reference wells with no treatment, followed by IC50 calculation. Suramine was used as the reference compound […]
# A compound with IC50 higher than 5 µM is classified as the […]
# subsequently evaluated in a secondary assay, with broader concentration range, additional references, and other species.
# IC50 values are shown in Table S1, followed by semi-quantitative activity scores, and indications for specificity. […]
# [3] = tested on: E. coli (ΔtolC efflux-defective mutant, isogenic to ATCC 25922); experiment: microbe, parasite or virus in culture; assay type: cell-based; details: Escherichia coli, ATCC25922, read-out: MIC Ec ΔtolC
# [4] = tested on: M. tuberculosis strain H37Rv (ATCC 25618); experiment: MIC on M. tuberculosis by resazurin reduction microplate assay (REMA); assay type: cell-based; details: Mycobacterium tuberculosis
# [5] = tested on: P. aeruginosa (PAO750 efflux-defective mutant, isogenic to PAO1); experiment: microbe, parasite or virus in culture; assay type: cell-based; details: Pseudomonas aeruginosa, PAO1, read-out: MIC Pa efflux
# [6] = target: T1, MtNDH-2 (Mycobacterium tuberculosis, UniProt P95160); experiment: biochemical; parameters: species or system M. tuberculosis; details: MtNDH-2 IC50
# T1 sequence (P95160 2-463, added parts left off): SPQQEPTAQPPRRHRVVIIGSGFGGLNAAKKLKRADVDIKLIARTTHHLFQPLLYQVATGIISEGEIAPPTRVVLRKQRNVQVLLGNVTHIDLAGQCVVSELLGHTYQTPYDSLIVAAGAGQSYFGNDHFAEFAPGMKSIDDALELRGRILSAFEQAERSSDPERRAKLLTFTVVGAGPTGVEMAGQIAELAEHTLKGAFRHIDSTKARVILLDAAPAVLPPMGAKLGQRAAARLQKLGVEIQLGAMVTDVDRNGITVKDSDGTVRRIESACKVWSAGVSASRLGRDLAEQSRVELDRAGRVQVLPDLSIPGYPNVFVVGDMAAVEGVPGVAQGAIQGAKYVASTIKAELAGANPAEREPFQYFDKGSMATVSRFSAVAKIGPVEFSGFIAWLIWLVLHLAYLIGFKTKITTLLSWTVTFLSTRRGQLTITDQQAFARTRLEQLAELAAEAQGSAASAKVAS
# [7] = tested on: S. aureus (ATCC 29213, wild-type); experiment: MIC on ESKAPE pathogens, S. aureus; assay type: cell-based; details: Staphylococcus aureus, ATCC29213
# [8] = tested on: P. aeruginosa (PAO1, wild-type); experiment: MIC on ESKAPE pathogens, P. aeruginosa wild-type; assay type: cell-based; details: Pseudomonas aeruginosa
# [9] = target: T1, MtNDH-2; parameters: method as in PMID 24900541; details: reported earlier; cited from earlier work
# [10] = Cytotoxicity on the MRC-5 cell line (resazurin); assay type: cell-based; details: human, MRC-5SV2 cells, MRC-5SV2, 3 days
# Experimental: MRC-5SV2 cells were cultured in Earl’s MEM + 5% FCSi. Assays were performed in 96-well microtiter plates, each well containing about 10^4 cells/well. After 3 days of incubation with or without compounds, cell viability was assessed fluorimetrically after the addition of resazurin (λex 550 nm, λem 590 nm). The results were expressed as % reduction in cell growth/viability compared to untreated control wells and CC50 was determined. Testing/retesting strategy was as described above for HepG2 cells.
# [11] = tested on: A. baumannii (ATCC 19606, wild-type); experiment: MIC on ESKAPE pathogens, A. baumannii; assay type: cell-based; details: Acinetobacter baumannii, ATCC19606; A. baumannii ATCC 19606, wild-type; read-out: MIC Ab WT
# [12] = tested on: E. coli (ATCC 25922, wild-type); experiment: MIC on ESKAPE pathogens, E. coli wild-type; assay type: cell-based; details: Escherichia coli
# [13] = tested on: E. coli (D22, lpxC mutant, drug-hypersensitive); experiment: microbe, parasite or virus in culture; assay type: cell-based; details: Escherichia coli, read-out: MIC Ec D22
# [14] = tested on: K. pneumonia (ATCC 13833, wild-type); experiment: MIC on ESKAPE pathogens, K. pneumoniae
# [15] = target: MsNDH-2 (Mycolicibacterium smegmatis, UniProt A0QYD6); experiment: Inhibition of MsNDH-2 (NADH oxidation with menadione, absorbance at 340 nm); assay type: biochemical, M. smegmatis
# Sequence of MsNDH-2 (A0QYD6 1-457): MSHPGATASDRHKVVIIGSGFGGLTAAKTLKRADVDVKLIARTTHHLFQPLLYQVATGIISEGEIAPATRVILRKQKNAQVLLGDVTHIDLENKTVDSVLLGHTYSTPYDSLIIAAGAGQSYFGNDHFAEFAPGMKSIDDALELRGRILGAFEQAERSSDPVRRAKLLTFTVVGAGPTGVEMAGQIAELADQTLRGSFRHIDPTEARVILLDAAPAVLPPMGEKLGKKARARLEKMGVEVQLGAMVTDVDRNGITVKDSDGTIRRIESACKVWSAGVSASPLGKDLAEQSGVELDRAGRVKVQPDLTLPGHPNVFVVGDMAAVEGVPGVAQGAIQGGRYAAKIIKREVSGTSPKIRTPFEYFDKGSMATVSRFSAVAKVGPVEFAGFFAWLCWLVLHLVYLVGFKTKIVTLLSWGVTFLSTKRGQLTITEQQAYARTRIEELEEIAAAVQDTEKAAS
# [16] = tested on: E. coli MG1655 ΔtolC resistant mutants; experiment: microbe, parasite or virus in culture; assay type: cell-based; details: for MIC: Escherichia coli
# [17] = tested on: P. aeruginosa PAO1 resistant mutants; experiment: microbe, parasite or virus in culture; assay type: cell-based
# [18] = tested on: HepG2 cells; details: human, 72 h
# [19] = tested on: Trypanosoma brucei brucei Squib 427; experiment: Trypanosoma brucei growth (resazurin); assay type: cell-based; details: reference compound
# Experimental: page 46: of PES (phenazine ethosulfate, 0.1 mg/ml) and NBT (Nitro Blue Tetrazolium Grade III, 2 mg/ml) in a new plate. The absorbance change was measured at 655nm. The results were shown as % reduction in parasitemia, compared to control wells with no treatment. […] A compound […] secondary screening. 3. Trypanosoma brucei sample has 7*104 parasites/ml in the suspension. Cultured for 3 days, the growth of the cells was assessed fluorimetrically with the addition of resazurin in a microtiter plate. The fluorescence intensity was measured after 24h at 37 °C with the excitation wavelength at 550nm and the emission wavelength at 590nm. The results were presented as % reduction in parasite growth, compared to reference wells with no treatment, followed by IC50 calculation. Suramine was used as the reference compound […] subsequently evaluated in a secondary assay, with broader concentration range, additional references, and other species. IC50 values are shown in Table S1, followed by semi-quantitative activity scores, and indications for specificity. […]
# [20] = M. tuberculosis H37Rv, read-out: MIC Mtb
# [21] = 95% confidence interval in parentheses, 50 nM enzyme, 50 μM menadione, >100: no significant inhibition at 100 μM
# [22] = same IC50 given in μg/mL to assist comparisons with MICs
# [23] = H37Rv, reference antitubercular agents, read-out: MIC M. tuberculosis
structure (smiles),measurement,setting,value
O=C(Cn1ccnc1[N+](=O)[O-])NCc1ccccc1 [Benznidazole],pIC50,[1],5.77
CCN(CC)CCCC(C)Nc1ccnc2cc(Cl)ccc12 (centres unmarked) [Chloroquine],pIC50,[2],6.68
"Cc1cccc(-c2cc(Nc3ccc4nc(-c5ccc(F)cc5)cc(N)c4c3)nc(N)n2)c1 [Compound 1, N^6-(2-Amino-6-m-tolylpyrimidin-4-yl)-2-(4-fluorophenyl)quinoline-4,6-diamine, reference compound]",MIC,[3],8 µg/mL
same,MIC,[4]; [20],2.6 µg/mL
same,MIC,[5],128 µg/mL
same,pIC50,[6],7.59 and 7.64
same,MIC,[7],1 µg/mL
same,MIC,"[8]; PAO1, read-out: MIC Pa WT",> 128 µg/mL
same,pIC50,[9],7.02
same,IC50 at 3 days,[10]; resazurin,1300 nM
same,IC50 at 3 days,[10]; value in parentheses,0.6 µg/mL
same,MIC,[11],64 µg/mL
same,MIC,"[12]; ATCC25922, read-out: MIC Ec WT",> 128 µg/mL
same,MIC,[13],4 µg/mL
same,MIC Kp WT,[14],>128 µg/mL
same,pIC50,[15]; [21],5.80
same,pIC50,[15]; [22],5.79
"CC(C)(C)OC(=O)NCC1CCN(c2cc(Nc3ccc4nc(-c5ccc(F)cc5)cc(N)c4c3)nc(N)n2)CC1 [Compound 8g, tert-Butyl ((1-(2-Amino-6-((4-amino-2-(4-fluorophenyl)quinolin-6-yl)amino)pyrimidin-4-yl)piperidin-4-yl)methyl)carbamate]",MIC,[3],4 µg/mL
same,MIC,[4]; [20],6.8 µg/mL
same,MIC,[5],128 µg/mL
same,pIC50,[6],6.54
same,MIC,[7],4 µg/mL
same,MIC,"[8]; PAO1, read-out: MIC Pa WT",> 128 µg/mL
same,IC50 at 3 days,[10]; resazurin,1400 nM
same,IC50 at 3 days,[10]; value in parentheses,0.8 µg/mL
same,MIC,[11],4 µg/mL
same,MIC,"[12]; ATCC25922, read-out: MIC Ec WT",> 128 µg/mL
same,MIC,[13],4 µg/mL
same,MIC Kp WT,[14],128 µg/mL
same,pIC50,[15]; [21],6.24
same,pIC50,[15]; [22],6.27
same,MIC,"[16]; MG1655, read-out: MIC mutant, mutant CH5053 raised against 8g, ackA Leu255Arg",16 µg/mL
same,MIC,"[16]; MG1655, read-out: MIC mutant, mutant CH5054 raised against 8g, ackA Glu375 stop codon",16 µg/mL
same,MIC,"[16]; MG1655, read-out: MIC mutant, mutant CH5055 raised against 8g, ackA Thr233Pro",16 µg/mL
same,MIC,"[16]; MG1655, read-out: MIC mutant, mutant CH5056 raised against 8g, ackA Gly275Asp",16 µg/mL
same,MIC,"[16]; MG1655, read-out: MIC mutant, mutant CH5057 raised against 8g, eno Pro38Leu",8 µg/mL
same,MIC,"[16]; MG1655, read-out: MIC mutant, mutant CH5058 raised against 8g, ackA Ile92fs",16 µg/mL
same,MIC,"[16]; MG1655, read-out: MIC mutant, mutant CH5059 raised against 8g, ackA Arg91Ser",16 µg/mL
same,MIC,"[16]; MG1655, read-out: MIC mutant, mutant CH5062 raised against 8g, ackA Gly241Asp",16 µg/mL
same,MIC,"[16]; MG1655, read-out: MIC mutant, mutant CH5063 raised against 8g, ackA Arg91Leu",16 µg/mL
same,fold increase of MIC,[16]; mutant CH5053 vs parent E. coli MG1655 ΔtolC,4
same,fold increase of MIC,[16]; mutant CH5054 vs parent E. coli MG1655 ΔtolC,4
same,fold increase of MIC,[16]; mutant CH5055 vs parent E. coli MG1655 ΔtolC,4
same,fold increase of MIC,[16]; mutant CH5056 vs parent E. coli MG1655 ΔtolC,4
same,fold increase of MIC,[16]; mutant CH5057 vs parent E. coli MG1655 ΔtolC,2
same,fold increase of MIC,[16]; mutant CH5058 vs parent E. coli MG1655 ΔtolC,4
same,fold increase of MIC,[16]; mutant CH5059 vs parent E. coli MG1655 ΔtolC,4
same,fold increase of MIC,[16]; mutant CH5062 vs parent E. coli MG1655 ΔtolC,4
same,fold increase of MIC,[16]; mutant CH5063 vs parent E. coli MG1655 ΔtolC,4
"Nc1nc(Nc2ccc3nc(-c4ccc(F)cc4)cc(N)c3c2)cc(N2CCC(N)CC2)n1 [Compound 8j, N^6-(2-Amino-6-(4-aminopiperidin-1-yl)pyrimidin-4-yl)-2-(4-fluorophenyl)quinoline-4,6-diamine]",MIC,[3],16 µg/mL
same,MIC,[4]; [20],44.5 µg/mL
same,MIC,"[17]; Pseudomonas aeruginosa, PAO1, read-out: MIC mutant",32 µg/mL
same,fold increase of MIC,[17]; mutant CH5071 vs parent P. aeruginosa PAO1,8
same,MIC mutant,"[17]; mutant CH5072 raised against 8j, phoQ Leu158fs",32 µg/mL
same,fold increase of MIC,[17]; mutant CH5072 vs parent P. aeruginosa PAO1,8
same,MIC mutant,"[17]; mutant CH5073 raised against 8j, basS (pmrB) Ser257Asn",32 µg/mL
same,fold increase of MIC,[17]; mutant CH5073 vs parent P. aeruginosa PAO1,8
same,MIC mutant,"[17]; mutant CH5075 raised against 8j, basS (pmrB) Ala29Glu",32 µg/mL
same,fold increase of MIC,[17]; mutant CH5075 vs parent P. aeruginosa PAO1,8
same,MIC mutant,"[17]; mutant CH5077 raised against 8j, phoQ Ser151 stop codon",32 µg/mL
same,fold increase of MIC,[17]; mutant CH5077 vs parent P. aeruginosa PAO1,8
same,MIC,[5],8 µg/mL
same,pIC50,[6],5.21 and 5.22
same,MIC,[7],32 µg/mL
same,MIC,"[8]; PAO1, P. aeruginosa PAO1, wild-type, read-out: MIC Pa WT",4 µg/mL
same,IC50 at 3 days,[10]; resazurin,22000 nM
same,IC50 at 3 days,[10]; value in parentheses,9.8 µg/mL
same,MIC,[11],128 µg/mL
same,MIC,"[12]; ATCC25922, E. coli ATCC 25922, wild-type, read-out: MIC Ec WT",64 µg/mL
same,MIC,[13],8 µg/mL
same,MIC Kp WT,[14],>128 µg/mL
same,pIC50,[15]; [21],4.68
same,pIC50,[15]; [22],4.67
"CO[C@H]1/C=C/O[C@@]2(C)Oc3c(C)c(O)c4c(O)c(c(/C=N/N5CCN(C)CC5)c(O)c4c3C2=O)NC(=O)/C(C)=C\C=C\[C@H](C)[C@H](O)[C@@H](C)[C@@H](O)[C@@H](C)[C@H](OC(C)=O)[C@@H]1C [Rifampicin, reference compound]",MIC,[4]; [23],0.0003 µM
same,cytotoxicity HepG2 TD50,[18],75 µM
same,cytotoxicity HepG2 TD99,[18],≥ 100 µM
Cc1ccc(C(=O)Nc2ccc(S(=O)(=O)O)c3cc(S(=O)(=O)O)cc(S(=O)(=O)O)c23)cc1NC(=O)c1cccc(NC(=O)Nc2cccc(C(=O)Nc3cc(C(=O)Nc4ccc(S(=O)(=O)O)c5cc(S(=O)(=O)O)cc(S(=O)(=O)O)c45)ccc3C)c2)c1 [Suramine],pIC50,[19],7.40
"COc1nc2ccc(Br)cc2cc1[C@@H](c1ccccc1)[C@@](O)(CCN(C)C)c1cccc2ccccc12 [bedaquiline, reference compound]",MIC,[4]; [23],0.37 µM
same,cytotoxicity HepG2 TD50,[18],50 µM
same,cytotoxicity HepG2 TD99,[18],≥ 100 µM
